In PubChem BioAssay AID248 (DTP/NCI, 2004):
Where “and” joins values, the source holds several entries; their conditions need not be identical. Identical values can stand only once. Inconclusive results and toxic doses are left out. Rule as the data show it: active = T/C of 150% or more; inactive = T/C below 125%.

Test system: L1210 leukemia ip in BDF1 mice, survival T/C
Experiment: NCI In Vivo Anticancer Drug Screen. Data for tumor model L1210 Leukemia (intraperitoneal) in B6D2F1 (BDF1) mice
Conditions: endpoint: mean survival time, higher = longer survival
Outline: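 Tumor was transplanted into mice, which were then dosed with test compound or vehicle alone. Survival was recorded for each group, and the treated figure was expressed relative to the control figure.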

[1] = dose: 100.0 mg/kg/injection, schedule: Q04DX003 (ip), vehicle: saline with Tween-80
[2] = dose: 200.0 mg/kg/injection, schedule: Q04DX003 (ip), vehicle: saline with Tween-80
[3] = dose: 400.0 mg/kg/injection, schedule: Q04DX003 (ip), vehicle: saline with Tween-80
[4] = dose: 100.0 mg/kg/injection, schedule: Q04DX002 (ip), vehicle: Klucel (hydroxypropylcellulose) (HPC)
[5] = dose: 100.0 mg/kg/injection, schedule: Q01DX001 (ip), vehicle: saline
[6] = dose: 100.0 mg/kg/injection, schedule: Q04DX003 (ip), vehicle: saline
[7] = dose: 200.0 mg/kg/injection, schedule: Q01DX001 (ip), vehicle: saline
[8] = dose: 200.0 mg/kg/injection, schedule: Q04DX003 (ip), vehicle: saline
[9] = dose: 400.0 mg/kg/injection, schedule: Q01DX001 (ip), vehicle: saline
[10] = dose: 400.0 mg/kg/injection, schedule: Q04DX003 (ip), vehicle: saline
[11] = dose: 100.0 mg/kg/injection, schedule: Q01DX009 (ip), vehicle: Klucel (hydroxypropylcellulose) (HPC)
[12] = dose: 200.0 mg/kg/injection, schedule: Q01DX009 (ip), vehicle: Klucel (hydroxypropylcellulose) (HPC)
[13] = dose: 400.0 mg/kg/injection, schedule: Q01DX009 (ip), vehicle: Klucel (hydroxypropylcellulose) (HPC)
[14] = dose: 100.0 mg/kg/injection, schedule: Q01DX009 (ip), vehicle: saline with Tween-80
[15] = dose: 100.0 mg/kg/injection, schedule: Q04DX003 (ip), vehicle: Klucel (hydroxypropylcellulose) (HPC)
[16] = dose: 200.0 mg/kg/injection, schedule: Q01DX009 (ip), vehicle: saline with Tween-80
[17] = dose: 200.0 mg/kg/injection, schedule: Q04DX003 (ip), vehicle: Klucel (hydroxypropylcellulose) (HPC)
[18] = dose: 400.0 mg/kg/injection, schedule: Q04DX003 (ip), vehicle: Klucel (hydroxypropylcellulose) (HPC)

Measured: T/C

CCCCCCCCCCCCCCCCCC[N+]1(CC)CCOCC1
inactive: dose: 3.13 mg/kg/injection, schedule: Q04DX002 (ip), vehicle: carboxymethylcellulose (CMC) 103 % of control and 87 % of control | dose: 6.25 mg/kg/injection, schedule: Q01DX001 (ip), vehicle: carboxymethylcellulose (CMC) 101 % of control | dose: 6.25 mg/kg/injection, schedule: Q01DX009 (ip), vehicle: carboxymethylcellulose (CMC) 93 % of control and 95 % of control | dose: 6.25 mg/kg/injection, schedule: Q04DX002 (ip), vehicle: carboxymethylcellulose (CMC) 100 % of control and 92 % of control | dose: 6.25 mg/kg/injection, schedule: Q04DX003 (ip), vehicle: carboxymethylcellulose (CMC) 98 % of control | dose: 12.5 mg/kg/injection, schedule: Q01DX001 (ip), vehicle: carboxymethylcellulose (CMC) 94 % of control | dose: 12.5 mg/kg/injection, schedule: Q01DX009 (ip), vehicle: carboxymethylcellulose (CMC) 93 % of control and 89 % of control | dose: 12.5 mg/kg/injection, schedule: Q04DX003 (ip), vehicle: carboxymethylcellulose (CMC) 100 % of control | dose: 25.0 mg/kg/injection, schedule: Q01DX001 (ip), vehicle: carboxymethylcellulose (CMC) 90 % of control | dose: 25.0 mg/kg/injection, schedule: Q04DX002 (ip), vehicle: carboxymethylcellulose (CMC) 94 % of control and 92 % of control | dose: 25.0 mg/kg/injection, schedule: Q04DX003 (ip), vehicle: carboxymethylcellulose (CMC) 89 % of control

O=C(NC1CCC12CC2)c1ccc2ccccc2c1 (stereo not drawn)
inactive: dose: 37.5 mg/kg/injection, schedule: Q04DX002 (ip), vehicle: saline with Tween-80 97 % of control | dose: 75.0 mg/kg/injection, schedule: Q04DX002 (ip), vehicle: saline with Tween-80 93 % of control | dose: 150.0 mg/kg/injection, schedule: Q04DX002 (ip), vehicle: saline with Tween-80 93 % of control | dose: 300.0 mg/kg/injection, schedule: Q04DX002 (ip), vehicle: saline with Tween-80 93 % of control

O=C(O)c1cscc1Cc1ccccc1
inactive: [1] 90 % of control | [2] 94 % of control | [3] 95 % of control

CN(Cc1ccccc1)N=Nc1ccccc1
inactive: dose: 50.0 mg/kg/injection, schedule: Q04DX002 (ip), vehicle: Klucel (hydroxypropylcellulose) (HPC) 103 % of control | [4] 95 % of control | dose: 200.0 mg/kg/injection, schedule: Q04DX002 (ip), vehicle: Klucel (hydroxypropylcellulose) (HPC) 116 % of control

COC(=O)CSC/C(=N\Nc1ccccc1)c1ccccc1
inactive: dose: 50.0 mg/kg/injection, schedule: Q04DX003 (ip), vehicle: saline 106 % of control | [5] 104 % of control | [6] 94 % of control | [7] 98 % of control | [8] 97 % of control | [9] 93 % of control | [10] 89 % of control

ON=C1CSSC1
inactive: dose: 1.0 mg/kg/injection, schedule: Q01DX009 (ip), vehicle: saline with Tween-80 97 % of control | dose: 1.56 mg/kg/injection, schedule: Q04DX003 (ip), vehicle: saline with Tween-80 97 % of control | dose: 2.0 mg/kg/injection, schedule: Q01DX009 (ip), vehicle: saline with Tween-80 97 % of control | dose: 3.12 mg/kg/injection, schedule: Q04DX003 (ip), vehicle: saline with Tween-80 106 % of control | dose: 4.0 mg/kg/injection, schedule: Q01DX009 (ip), vehicle: saline with Tween-80 101 % of control | dose: 6.25 mg/kg/injection, schedule: Q04DX003 (ip), vehicle: saline with Tween-80 101 % of control | dose: 8.0 mg/kg/injection, schedule: Q01DX009 (ip), vehicle: saline with Tween-80 104 % of control | dose: 12.5 mg/kg/injection, schedule: Q04DX003 (ip), vehicle: saline with Tween-80 89 % of control and 90 % of control

Cc1ccc(C(=O)CC(Sc2ccccc2N)c2cccc([N+](=O)[O-])c2)cc1 (stereo not drawn)
inactive: dose: 100.0 mg/kg/injection, schedule: Q01DX005 (ip), vehicle: Klucel (hydroxypropylcellulose) (HPC) 93 % of control | [11] 97 % of control | [4] 98 % of control | dose: 200.0 mg/kg/injection, schedule: Q01DX005 (ip), vehicle: Klucel (hydroxypropylcellulose) (HPC) 96 % of control | [12] 94 % of control | dose: 400.0 mg/kg/injection, schedule: Q01DX005 (ip), vehicle: Klucel (hydroxypropylcellulose) (HPC) 115 % of control | [13] 97 % of control | dose: 400.0 mg/kg/injection, schedule: Q04DX002 (ip), vehicle: Klucel (hydroxypropylcellulose) (HPC) 95 % of control

NC(Cc1ccc(O)c(O)c1)C(=O)O (stereo not drawn)
inactive: [5] 93 % of control | [7] 95 % of control | [9] 97 % of control

O=C(O)CCC(=O)c1cccc([N+](=O)[O-])c1
inactive: dose: 50.0 mg/kg/injection, schedule: Q01DX009 (ip), vehicle: saline with Tween-80 103 % of control | [11] 95 % of control | [14] 107 % of control | [15] 91 % of control | [12] 103 % of control | [16] 87 % of control | [17] 94 % of control | [18] 94 % of control

CCCOc1ccc(-c2nc(-c3ccc(N=Cc4ccc(N(CCOS(C)(=O)=O)CCOS(C)(=O)=O)cc4C)cc3)cs2)cc1
inactive: dose: 25.0 mg/kg/injection, schedule: Q01DX009 (ip), vehicle: Klucel (hydroxypropylcellulose) (HPC) 114 % of control | dose: 50.0 mg/kg/injection, schedule: Q01DX009 (ip), vehicle: Klucel (hydroxypropylcellulose) (HPC) 109 % of control | dose: 75.0 mg/kg/injection, schedule: Q01DX009 (ip), vehicle: Klucel (hydroxypropylcellulose) (HPC) 106 % of control | [11] 94 % of control

O=c1ccn(CCC(CO)CO)c(=O)[nH]1
inactive: [6] 101 % of control | [8] 106 % of control | [10] 102 % of control

NC(N)=NCCCC(NC(=O)c1ccccc1)C(=O)Nc1ccc([N+](=O)[O-])cc1 (stereo not drawn)
inactive: [14] 89 % of control | [6] 104 % of control | [16] 95 % of control | [8] 100 % of control | dose: 400.0 mg/kg/injection, schedule: Q01DX009 (ip), vehicle: saline with Tween-80 110 % of control | [10] 98 % of control

O=NO.O=N[O-].O=N[O-].[Co+3].[NH-]CC[N-]CCO.[NH-]CC[N-]CCO
inactive: dose: 25.0 mg/kg/injection, schedule: Q01DX009 (ip), vehicle: water 107 % of control | dose: 25.0 mg/kg/injection, schedule: Q04DX003 (ip), vehicle: water 100 % of control | dose: 50.0 mg/kg/injection, schedule: Q01DX009 (ip), vehicle: water 106 % of control and 107 % of control | dose: 50.0 mg/kg/injection, schedule: Q04DX003 (ip), vehicle: water 103 % of control | dose: 100.0 mg/kg/injection, schedule: Q01DX009 (ip), vehicle: water 111 % of control | dose: 100.0 mg/kg/injection, schedule: Q04DX003 (ip), vehicle: water 98 % of control and 101 % of control

CCCCCCCCCCCCCCCCSc1ccc(Br)cc1
inactive: [1] 92 % of control | [2] 102 % of control | [3] 97 % of control

OCC1OC(n2cnc3c(NCCNc4ncnc5c4ncn5C4OC(CO)C(O)C4O)ncnc32)C(O)C1O (stereo not drawn)
inactive: dose: 50.0 mg/kg/injection, schedule: Q04DX002 (ip), vehicle: saline 102 % of control | dose: 100.0 mg/kg/injection, schedule: Q04DX002 (ip), vehicle: saline 110 % of control

CSc1ccc(C(O)Cc2ccc([N+](=O)[O-])cc2)cc1 (stereo not drawn)
inactive: [11] 96 % of control | [15] 94 % of control | [12] 97 % of control | [17] 96 % of control | [13] 100 % of control | [18] 98 % of control

CC(=O)N=c1sccn1Cc1ccccc1
inactive: dose: 75.0 mg/kg/injection, schedule: Q01DX001 (ip), vehicle: carboxymethylcellulose (CMC) 95 % of control | dose: 150.0 mg/kg/injection, schedule: Q01DX001 (ip), vehicle: carboxymethylcellulose (CMC) 98 % of control | dose: 300.0 mg/kg/injection, schedule: Q01DX001 (ip), vehicle: carboxymethylcellulose (CMC) 98 % of control
